# Source: patent US20120263780A1, “Carbohydrate Entrapped Active Agent Delivery Composition and Articles Using the Same” (priority 2009, published 2012)
# Key:
# [1] = tested on: Staphylococcus aureus (ATCC #6538); experiment: Shake flask test ASTM E2149-01, anti-bacterial activity of thymol-treated coform substrates; assay type: cell-based; conditions: 7 day old sample, 1 hour exposure
# Description: Five sections of coform material approximately 17 cm by 17 cm were prepared and weighed to determine the amount of thymol needed for loading of thymol at a weight percent of 0.3%, 0.6% and 1.0%. The determined quantity of thymol to provide thymol as a percentage was placed in an excess (39.0 grams) of ethanol to be dissolved. The coform substrates were placed into a plastic bag and the ethanol/thymol mixture was added. Using a cylindrical glass jar rolled on the outside of the sealed plastic bag, the sheets were rolled to evenly express the liquid throughout the coform squares. The coform was then removed from the bag and placed in a fume hood to allow the ethanol to evaporate off. The remaining dry sheets containing thymol were removed from the hood after one hour and placed in a dry plastic bag. Samples were aged 7 days and tested for anti-bacterial activity. To determine the anti-bacterial activity of the samples after 7 days, the shake flask test of ASTM […]-01 “Standard Test Method for Determining the Antimicrobial Activity of Immobilized Antimicrobial Agents Under Dynamic Contact Conditions” was used. Approximately 1 gram samples of thymol-treated and untreated coform substrates were placed in individual capped flasks containing approximately 10^5 CFU of a Staphylococcus aureus (ATCC #6538) in phosphate buffered saline. Flasks were shaken at maximum speed on a wrist-action shaker for 1 hour. […] The active agent thymol has volatilized off of the sample within the 7 day time period.
# [2] = tested on: Staphylococcus aureus (ATCC #6538); experiment: Zone of inhibition testing on agar plates; assay type: cell-based; conditions: for Observed Zone of Inhibition (mm): 7 day old sample; for Zone (mm): thymol powder in well
# Description: The samples prepared above were cut into 10 mm-diameter circular sections of thymol-treated and untreated material. These samples were placed on a freshly streaked sample of staphylococcus aureus on trypticase soy agar. After 24 hours incubation at 37° C., plates were measured for zones of inhibitions surrounding the samples. To calculate the zone of inhibition, the test material was brought into contact with a known population of test microorganisms on an agar plate for a specified period of time. At the end of the contact time the area of inhibited colony formation around the test material was measured. The size of this area of no growth was a measure of leaching of the antimicrobial agent from the test material. In this procedure, the test material was cut into small discs and placed on an agar plate evenly spread with a test microorganism. The plates were incubated for 24 hours at ideal growth conditions. Following incubation, the diameter of the circle of no growth around the disc was measured. The zone of inhibition was reported as the difference between the sample disc diameter and the average of the measured no growth zone diameters. Materials and Reagents • Microorganisms: frozen stock of Staphylococcus aureus (ATCC 6538). • Mueller-Hinton agar (MHA) plates or equivalent plated media. Prepare following manufacturer's directions. Store at 4±2° C. Alternatively pre-made plates can be utilized. • Mueller-Hinton broth (MHB) or equivalent liquid media. Prepare following manufacturers directions. Store at 4±2° C. Alternately pre-made media can be utilized. • Sterile cotton swabs or equivalent. • Sterile forceps. • Positive control disc: Vanocymicin susceptibility discs (6 mm), 30 μg/disc (BD and Company; Sparks, Md.). • Test material, cut into 8 mm discs. • Calipers or other measuring device. • Other ancillary lab supplies. 2. Staphylococcus aureus (ATCC 6538) is inoculated from an overnight plate or MHB into 5 ml of sterile MHB in a 35° C. incubator for 18-24 hrs. 3. The overnight culture is then adjusted using MHB to the 0.5 McFarland barium sulphate standards (1×10^8 CFU/ml) or approximately 0.15 OD with a 0.2 cm light path at 660 nanometer. 1. Pre-warm, to room temperature, MHA plates. […] 3. Moisten a sterile applicator swab in the standardized cell suspension and express any excess moisture by rotating the swab against the glass above the liquid in the tube. Inoculate the entire surface of each plate, inoculating the surface completely in three different directions to ensure uniform growth. 5. Store the inoculated plates at room temperature for 10-15 minutes to allow the medium to absorb the moisture from the inoculum. 6. Apply discs of test material to the surface of the inoculated medium with a sterile forceps and tap them to ensure that they are in complete contact with the agar surface. A positive control (vancomycin disc) and negative control (uncoated disc) should be used on each plate. 7. Invert the inoculated plates and incubate them at 35° C. for 18-24 hours. 8. Examine the plates from the back, viewed against a black background and illuminated with reflected light. With calipers, measure the diameter of each zone of inhibition to the nearest whole millimeter. Zone of Inhibition=diameter of no growth area−diameter of disc First, exemplary Delivery Compositions 1 and 2 were created. A sucrose blend was melted on a stove top to prepare a carbohydrate matrix. An active agent was added to the molten sucrose to provide a 2% loading of thymol. After the mixture was melted, analysis was performed to determine the amount of thymol retained within the sucrose. Delivery Composition 1 contained approximately 0.72 wt. % thymol and Delivery Composition 2 contained approximately 0.74 wt. % thymol. Both Delivery Compositions 1 and 2 were placed in a well in a media with a plate inoculated with Staphylococcus aureus (ATCC #6538) and a zone of inhibition for each sample was measured as described above. […]
# [3] = 0.3% thymol add-on to coform substrate
# [4] = 0.6% thymol add-on to coform substrate
# [5] = 1% thymol add-on to coform substrate
structure (smiles),measurement,setting,value
"Cc1ccc(C(C)C)c(O)c1 [Thymol, thymol]",Log10 Reduction of Bacteria,[1]; [3],No Reduction
same,Log10 Reduction of Bacteria,[1]; [4],No Reduction
same,Log10 Reduction of Bacteria,[1]; [5],No Reduction
same,Observed Zone of Inhibition (mm),[2]; [3],0 mm
same,Observed Zone of Inhibition (mm),[2]; [4],0 mm
same,Observed Zone of Inhibition (mm),[2]; [5],0 mm
same,zone of inhibition,"[2]; neat powder, various amounts, after 1 day",10-15 mm
same,Zone (mm),[2]; weight 0.0018 grams,10 mm
same,Zone (mm),[2]; weight 0.0045 grams,12 mm
same,Zone (mm),[2]; weight 0.0353 grams,13 mm
same,Zone (mm),[2]; weight 0.0789 grams,12 mm
same,Zone (mm),[2]; weight 0.1609 grams,15 mm
